Broadly, the IC50 is the concentration that gives 50% inhibition. What is called Ki is the equilibrium dissociation constant of an inhibitor or competing ligand from its target.

Test [1] deals with T1, Bradykinin-1 receptor (Homo sapiens (Human), UniProt P46663). Nature of the test: Calcium Mobilization Assay. The class given is cell-based. The note with it: GeneBLAzer Bradykinin (B1)-NFAT-bla CHO-K1 cells; antagonist activity, FLIPR; read-out: Ca mobilization IC50. On the procedure:
Calcium Mobilization Assay
GeneBLAzer® Bradykinin (B1)-NFAT-bla CHO-K1 cells (from Invitrogen) stably overexpressing the human bradykinin 1 receptor were cultured in DMEM (high glucose) supplemented with 10% dialysed FBS, 1% NEAA (non essential amino acids) 1% penicillin/streptomycin, 1% G418 and 0.1 mg/ml zeocin.
For the assay cells were grown overnight in 384-well black clear flat bottom polystyrene plates (Costar) at 37° C. at 5% CO2. After washing with DMEM, 20 mM Hepes, 2.5 mM probenecid, 0.1% BSA (DMEM assay buffer) cells were loaded with 4 μM Fluo-4 in the same DMEM assay buffer for 2 hours at 30° C. Excess dye was removed and cells were washed with DMEM assay buffer. 384-well compound plates were prepared with DMEM assay buffer/0.5% DMSO with or without various concentrations of test compounds. Usually compounds were tested for agonist and antagonist activity.
Test compounds were added to the assay plate and agonist activity was monitored as fluorescence for 80 seconds with a FLIPR (488 nm excitation; 510-570 nm emission; Molecular Devices). […] Increases in intracellular calcium are reported as maximum fluorescence after agonist exposure minus basal fluorescence before exposure. Antagonist activity is indicated as inhibitor concentration required for 50% inhibition of specific calcium increases.

Test [2] addresses T1, Bradykinin-1 receptor. Nature of the test: Receptor Binding Assay. As to conditions: membranes from CHO-K1 cells overexpressing Bradykinin-1 receptor; 6 nM [3H]Kallidin (Des Arg10, Leu9); read-out: B1R Binding Ki. On the procedure:
Binding assays were done with membranes from CHO-K1 cells overexpressing Bradykinin-1 receptor.
For binding, Bradykinin-1 receptor antagonist compounds were added in various concentrations in 50 mM Tris pH 7.4, 5 mM MgCl2 together with 6 nM Kallidin (Des Arg^10, Leu^9), [3,4-Prolyl-3,4-^3H(N)] (PerkinElmer, 1.85-4.44 TBq/mmol) to 40 μg membrane protein containing approximately 1 fmol Bradykinin-1 receptor and incubated for 15 min at 27° C. To determine non-specific binding 10 μM Lys-(Des-Arg^9)-Bradykinin (Bachem) was added. Membranes were harvested through GF/B (glass fiber filter; PerkinElmer) plates, equilibrated with 0.5% polyethylenimine, air dried at 50° C. for 2 hr. Radioactivity was determined by counting in a topcounter (NXT Packard). Specific binding was defined as total binding minus nonspecific binding and typically represents about 90-95% of the total binding. Antagonist activity is expressed as Ki: inhibitor concentration required for 50% inhibition of specific binding corrected for the concentration of the radioligand.

T1 sequence (P46663 whole entry): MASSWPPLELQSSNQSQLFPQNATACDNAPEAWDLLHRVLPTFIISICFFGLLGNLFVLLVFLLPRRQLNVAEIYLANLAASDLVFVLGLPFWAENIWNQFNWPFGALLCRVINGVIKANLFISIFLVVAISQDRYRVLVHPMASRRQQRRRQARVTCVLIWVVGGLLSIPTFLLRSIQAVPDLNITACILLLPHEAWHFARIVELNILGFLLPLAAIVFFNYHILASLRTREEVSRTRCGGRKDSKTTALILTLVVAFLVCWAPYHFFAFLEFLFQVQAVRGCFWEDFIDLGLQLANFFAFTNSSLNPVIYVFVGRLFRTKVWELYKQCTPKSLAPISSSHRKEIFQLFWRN

For the compound `C[C@@H](NC(=O)C1(NC(=O)C(F)(F)F)COC1)c1ncc(-c2cc(Cl)cc(F)c2-c2nnn(C)n2)cc1F` [Example 21, 3-(2,2,2-Trifluoro-acetylamino)-oxetane-3-carboxylic acid ((R)-1-{5-[5-chloro-3-fluoro-2-(2-methyl-2H-tetrazol-5-yl)-phenyl]-3-fluoro-pyridin-2-yl}-ethyl)-amide], the IC50 in test [1] was determined as 1 nM. Besides, the Ki in test [2] amounted to 4.3 nM.
For `Cc1nnc(C(=O)NC2(C(=O)N[C@H](C)c3ncc(-c4cc(Cl)cc(Cl)c4OCC(F)F)cc3F)COC2)o1` [Example 39, 5-Methyl-[1,3,4]oxadiazole-2-carboxylic acid [3-((R)-1-{5-[3,5-dichloro-2-(2,2-difluoro-ethoxy)-phenyl]-3-fluoro-pyridin-2-yl}-ethylcarbamoyl)-oxetan-3-yl]-amide], the half-maximal inhibitory concentration (IC50) in test [1] stood at 3.9 nM. In addition, the Ki in test [2] was determined as 8.7 nM.
The like results for `COC(=O)c1c(Cl)cccc1-c1ccc([C@@H](C)NC(=O)C2(NC(=O)C(F)(F)F)COC2)c(F)c1` [Example 6, 3-Chloro-3′-fluoro-4′-((R)-1-{[3-(2,2,2-trifluoro-acetylamino)-oxetane-3-carbonyl]-amino}-ethyl)-biphenyl-2-carboxylic acid methyl ester] were, in that order, 2.2 nM and 6.5 nM.
The like results for `Cc1nc(-c2c(F)cc(Cl)cc2-c2cnc([C@@H](C)NC(=O)C3(NC(=O)c4cncnc4)COC3)c(F)c2)no1` [Example 5, Pyrimidine-5-carboxylic acid [3-((R)-1-{5-[5-chloro-3-fluoro-2-(5-methyl-[1,2,4]oxadiazol-3-yl)-phenyl]-3-fluoro-pyridin-2-yl}-ethylcarbamoyl)-oxetan-3-yl]-amide] were, in that order, 0.1 nM and 1.1 nM.
The like results for `C[C@@H](NC(=O)C1(NC(=O)c2ccno2)COC1)c1ccc(-c2cc(Cl)cc(Cl)c2OCC(F)F)cc1F` [Example 32, Isoxazole-5-carboxylic acid (3-{(R)-1-[3′,5′-dichloro-2′-(2,2-difluoro-ethoxy)-3-fluoro-biphenyl-4-yl]-ethylcarbamoyl}-oxetan-3-yl)-amide] were, in that order, 0.2 nM and 2.3 nM.
Take `C[C@@H](NC(=O)C1(NC(=O)C(F)(F)F)COC1)c1ccc(-c2cc(Cl)cc(Cl)c2OCC(F)F)cc1F` [Example 33, 3-(2,2,2-Trifluoro-acetylamino)-oxetane-3-carboxylic acid {(R)-1-[3′,5′-dichloro-2′-(2,2-difluoro-ethoxy)-3-fluoro-biphenyl-4-yl]-ethyl}-amide]: in test [1], the IC50 was found to be 5.3 nM. Also, the Ki in test [2] turned out to be 19.9 nM.
The like results for `Cc1nc(-c2c(F)cc(Cl)cc2-c2cnc([C@@H](C)NC(=O)C3(NC(=O)c4cccnn4)COC3)c(F)c2)no1` [Example 29, Pyridazine-3-carboxylic acid [3-((R)-1-{5-[5-chloro-3-fluoro-2-(5-methyl-[1,2,4]oxadiazol-3-yl)-phenyl]-3-fluoro-pyridin-2-yl}-ethylcarbamoyl)-oxetan-3-yl]-amide] were, in that order, 9.4 nM and 14.1 nM.
The like results for `C[C@@H](NC(=O)C1(NC(=O)C(F)(F)F)COC1)c1ccc(-c2cc(Cl)cc(F)c2-c2nnn(C)n2)cc1F` [Example 22, 3-(2,2,2-Trifluoro-acetylamino)-oxetane-3-carboxylic acid {(R)-1-[5′-chloro-3,3′-difluoro-2′-(2-methyl-2H-tetrazol-5-yl)-biphenyl-4-yl]-ethyl}-amide] were, in that order, 0.5 nM and 1.7 nM.
The like results for `Cc1nc(-c2c(F)cc(Cl)cc2-c2cnc([C@@H](C)NC(=O)C3(NC(=O)c4cc(F)cc(C(F)(F)F)c4)COC3)c(F)c2)no1` [Example 1, 3-(3-Fluoro-5-trifluoromethyl-benzoylamino)-oxetane-3-carboxylic acid ((R)-1-{5-[5-chloro-3-fluoro-2-(5-methyl-[1,2,4]oxadiazol-3-yl)-phenyl]-3-fluoro-pyridin-2-yl}-ethyl)-amide] were, in that order, 0.3 nM and 2.6 nM.
As for `Cc1nc(-c2c(F)cc(Cl)cc2-c2cnc([C@@H](C)NC(=O)C3(NC(=O)c4nccn4C)COC3)c(F)c2)no1` [Example 26, 1-Methyl-1H-imidazole-2-carboxylic acid [3-((R)-1-{5-[5-chloro-3-fluoro-2-(5-methyl-[1,2,4]oxadiazol-3-yl)-phenyl]-3-fluoro-pyridin-2-yl}-ethylcarbamoyl)-oxetan-3-yl]-amide], in test [1], the IC50 was 490 nM. Also, the Ki in test [2] is 503 nM.
The like results for `Cc1nc(-c2c(F)cc(Cl)cc2-c2cnc([C@@H](C)NC(=O)C3(NC(=O)c4cn(C)cn4)COC3)c(F)c2)no1` [Example 27, 1-Methyl-1H-imidazole-4-carboxylic acid [3-((R)-1-{5-[5-chloro-3-fluoro-2-(5-methyl-[1,2,4]oxadiazol-3-yl)-phenyl]-3-fluoro-pyridin-2-yl}-ethylcarbamoyl)-oxetan-3-yl]-amide] were, in that order, 107 nM and 82.6 nM.
The like results for `Cc1nc(-c2c(F)cc(Cl)cc2-c2cnc([C@@H](C)NC(=O)C3(NC(=O)c4ccnnc4)COC3)c(F)c2)no1` [Example 25, Pyridazine-4-carboxylic acid [3-((R)-1-{5-[5-chloro-3-fluoro-2-(5-methyl-[1,2,4]oxadiazol-3-yl)-phenyl]-3-fluoro-pyridin-2-yl}-ethylcarbamoyl)-oxetan-3-yl]-amide] were, in that order, 0.4 nM and 1 nM.
The like results for `Cc1cc(C(=O)NC2(C(=O)N[C@H](C)c3ncc(-c4cc(Cl)cc(Cl)c4OCC(F)F)cc3F)COC2)on1` [Example 9, 3-Methyl-isoxazole-5-carboxylic acid [3-((R)-1-{5-[3,5-dichloro-2-(2,2-difluoro-ethoxy)-phenyl]-3-fluoro-pyridin-2-yl}-ethylcarbamoyl)-oxetan-3-yl]-amide] were, in that order, 1.1 nM and 5.1 nM.
As for `COc1ncc(C(=O)NC2(C(=O)N[C@H](C)c3ccc(-c4cc(Cl)cc(F)c4-c4nnn(C)n4)cc3F)COC2)cn1` [Example 44, 2-Methoxy-pyrimidine-5-carboxylic acid (3-{(R)-1-[5′-chloro-3,3′-difluoro-2′-(2-methyl-2H-tetrazol-5-yl)-biphenyl-4-yl]-ethylcarbamoyl}-oxetan-3-yl)-amide], in test [1], the IC50 came out at 0.1 nM. In addition, the Ki in test [2] was determined as 1.1 nM.
Consider `C[C@@H](NC(=O)C1(NC(=O)c2cncnc2)COC1)c1ncc(-c2cc(Cl)cc(Cl)c2OCC(F)F)cc1F` [Example 11, Pyrimidine-5-carboxylic acid [3-((R)-1-{5-[3,5-dichloro-2-(2,2-difluoro-ethoxy)-phenyl]-3-fluoro-pyridin-2-yl}-ethylcarbamoyl)-oxetan-3-yl]-amide], for which the IC50 in test [1] amounted to 0.8 nM. Besides, the Ki in test [2] was 2.6 nM.
Take `COc1ncc(C(=O)NC2(C(=O)N[C@H](C)c3ncc(-c4cc(Cl)cc(Cl)c4OCC(F)F)cc3F)COC2)cn1` [Example 40, 2-Methoxy-pyrimidine-5-carboxylic acid [3-((R)-1-{5-[3,5-dichloro-2-(2,2-difluoro-ethoxy)-phenyl]-3-fluoro-pyridin-2-yl}-ethylcarbamoyl)-oxetan-3-yl]-amide]: the IC50 in test [1] stood at 0.1 nM. Besides, in test [2], the Ki amounted to 1.1 nM.
In the case of `COC(=O)c1c(Cl)cccc1-c1ccc([C@@H](C)NC(=O)C2(NC(=O)CC(F)(F)F)COC2)c(F)c1` [Example 8, 3-Chloro-3′-fluoro-4′-((R)-1-{[3-(3,3,3-trifluoro-propionylamino)-oxetane-3-carbonyl]-amino}-ethyl)-biphenyl-2-carboxylic acid methyl ester], in test [1], the IC50 came to 0.4 nM. Also, in test [2], the Ki turned out to be 5.3 nM.
The like results for `Cc1nnsc1C(=O)NC1(C(=O)N[C@H](C)c2ncc(-c3cc(Cl)cc(Cl)c3OCC(F)F)cc2F)COC1` [Example 41, 4-Methyl-[1,2,3]thiadiazole-5-carboxylic acid [3-((R)-1-{5-[3,5-dichloro-2-(2,2-difluoro-ethoxy)-phenyl]-3-fluoro-pyridin-2-yl}-ethylcarbamoyl)-oxetan-3-yl]-amide] were, in that order, 3.6 nM and 7.1 nM.
The like results for `COc1cc(C(=O)NC2(C(=O)N[C@H](C)c3ncc(-c4cc(Cl)cc(F)c4-c4nnn(C)n4)cc3F)COC2)on1` [Example 34, 3-Methoxy-isoxazole-5-carboxylic acid [3-((R)-1-{5-[5-chloro-3-fluoro-2-(2-methyl-2H-tetrazol-5-yl)-phenyl]-3-fluoro-pyridin-2-yl}-ethylcarbamoyl)-oxetan-3-yl]-amide] were, in that order, 0.4 nM and 2.2 nM.
